The source of these data is PubChem BioAssay AID328 (DTP/NCI, 2004).

The test concerns BDF1 mice, P388 leukemia ip, median survival T/C. Kind of test: NCI In Vivo Anticancer Drug Screen. Data for tumor model P388 Leukemia (intraperitoneal) in B6D2F1 (BDF1) mice. As to conditions: endpoint: median survival time, higher = longer survival. A digest of the protocol: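 T/C = treated-group survival ÷ vehicle-control survival; tumour transplanted into mice before dosing.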

[1] abbreviates: dose: 25.0 mg/kg/injection, schedule: Q01DX009 (ip), vehicle: Klucel (hydroxypropylcellulose) (HPC).
The mark [2] stands for this setting: dose: 50.0 mg/kg/injection, schedule: Q01DX009 (ip), vehicle: Klucel (hydroxypropylcellulose) (HPC).
Where [3] appears, read: dose: 100.0 mg/kg/injection, schedule: Q01DX009 (ip), vehicle: Klucel (hydroxypropylcellulose) (HPC).
Where [4] appears, read: dose: 200.0 mg/kg/injection, schedule: Q01DX009 (ip), vehicle: Klucel (hydroxypropylcellulose) (HPC).
The mark [5] stands for this setting: dose: 100.0 mg/kg/injection, schedule: Q01DX009 (ip), vehicle: saline with Tween-80.
The mark [6] stands for this setting: dose: 200.0 mg/kg/injection, schedule: Q01DX009 (ip), vehicle: saline with Tween-80.
[7] abbreviates: dose: 400.0 mg/kg/injection, schedule: Q01DX009 (ip), vehicle: saline with Tween-80.
[8] abbreviates: dose: 50.0 mg/kg/injection, schedule: Q01DX009 (ip), vehicle: saline with Tween-80.
Where [9] appears, read: dose: 100.0 mg/kg/injection, schedule: Q04DX003 (ip), vehicle: saline with Tween-80.
The mark [10] stands for this setting: dose: 400.0 mg/kg/injection, schedule: Q04DX003 (ip), vehicle: saline with Tween-80.

Values joined by “and” are separate entries in the source; they are usually repeats but may differ in a detail not shown here. Equal entries are not always repeated. Inconclusive results and toxic doses are left out.

For the compound `COC(=O)C12OCC34C(CC5C(C)=C(O)C(=O)CC5(C)C3C(O)C1O)OC(=O)C(OC(=O)/C=C(\C)C(C)(C)O)C24` (configuration not stated), the T/C reads like this: (dose: 0.2 mg/kg/injection, schedule: Q01DX009 (ip), vehicle: saline) 165 % of control; (dose: 0.4 mg/kg/injection, schedule: Q01DX009 (ip), vehicle: saline) 165 % of control; (dose: 0.8 mg/kg/injection, schedule: Q01DX009 (ip), vehicle: saline) 163 % of control; (dose: 60.0 micrograms/kg/injection, schedule: Q01DX009 (ip), vehicle: saline + alcohol) 183 % of control; (dose: 120.0 micrograms/kg/injection, schedule: Q01DX009 (ip), vehicle: saline + alcohol) 183 % of control; (dose: 250.0 micrograms/kg/injection, schedule: Q01DX009 (ip), vehicle: saline + alcohol) 200 % of control. In addition, the T/C (dose: 500.0 micrograms/kg/injection, schedule: Q01DX009 (ip), vehicle: saline + alcohol) was 211 % of control; the T/C (dose: 1000.0 micrograms/kg/injection, schedule: Q01DX009 (ip), vehicle: saline + alcohol) is 238 % of control; the T/C (dose: 2000.0 micrograms/kg/injection, schedule: Q01DX009 (ip), vehicle: saline + alcohol) was 194 % of control.
As to `C[C@]12CC[C@H]3[C@@H](CC[C@]4(O)C[C@@H](O)CC[C@]34C=O)[C@@]1(O)CC[C@@H]2C1=CC(=O)OC1`, the T/C reads like this: (dose: 12.5 mg/kg/injection, schedule: Q01DX009 (ip), vehicle: Klucel (hydroxypropylcellulose) (HPC)) 105 % of control; under setting [1], 95 % of control; (dose: 25.0 mg/kg/injection, schedule: Q01DX010 (ip), vehicle: carboxymethylcellulose (CMC)) 100 % of control; under setting [2], 109 % of control and 115 % of control; under setting [3], 100 % of control; (dose: 100.0 mg/kg/injection, schedule: Q01DX010 (ip), vehicle: carboxymethylcellulose (CMC)) 105 % of control. For the same compound, the T/C is 100 % of control under setting [4] and 105 % of control (dose: 200.0 mg/kg/injection, schedule: Q01DX010 (ip), vehicle: carboxymethylcellulose (CMC)).
For the compound `CC(C)n1c(=S)[nH]c2ccccc2c1=O`, the T/C is 100 % of control (dose: 100.0 mg/kg/injection, schedule: Q01DX001 (ip), vehicle: Klucel (hydroxypropylcellulose) (HPC)); 100 % of control (dose: 200.0 mg/kg/injection, schedule: Q01DX001 (ip), vehicle: Klucel (hydroxypropylcellulose) (HPC)); 100 % of control (dose: 400.0 mg/kg/injection, schedule: Q01DX001 (ip), vehicle: Klucel (hydroxypropylcellulose) (HPC)).
Consider `c1ccc2cc3c(cc2c1)Cn1c-3nc2ccccc21`, for which the T/C was 100 % of control under setting [5], 100 % of control under setting [6] and 95 % of control under setting [7].
`CC1=CC2=NC(=O)C(c3ccccc3)C(=O)N2C=C1` (configuration not stated): the T/C under setting [1] is 100 % of control; the T/C (dose: 25.0 mg/kg/injection, schedule: Q04DX003 (ip), vehicle: Klucel (hydroxypropylcellulose) (HPC)) is 100 % of control; the T/C under setting [2] is 105 % of control; the T/C (dose: 50.0 mg/kg/injection, schedule: Q04DX003 (ip), vehicle: Klucel (hydroxypropylcellulose) (HPC)) was 100 % of control; the T/C under setting [3] was 115 % of control; the T/C (dose: 100.0 mg/kg/injection, schedule: Q04DX003 (ip), vehicle: Klucel (hydroxypropylcellulose) (HPC)) is 100 % of control. Moreover, under “dose: 400.0 mg/kg/injection, schedule: Q04DX003 (ip), vehicle: Klucel (hydroxypropylcellulose) (HPC)”, the T/C was 88 % of control.
On to `COC1(c2ccc([N+](=O)[O-])o2)OC1(C)C` (configuration not stated), for which the T/C is 111 % of control (dose: 12.5 mg/kg/injection, schedule: Q01DX009 (ip), vehicle: saline with Tween-80); 118 % of control (dose: 25.0 mg/kg/injection, schedule: Q01DX009 (ip), vehicle: saline with Tween-80); 113 % of control under setting [8]; 111 % of control under setting [5]; 99 % of control under setting [9]; 117 % of control under setting [6]. Also, the T/C reads like this: (dose: 200.0 mg/kg/injection, schedule: Q04DX003 (ip), vehicle: saline with Tween-80) 107 % of control; under setting [7], 108 % of control; under setting [10], 109 % of control.
Consider `CN(C)/C=C/C=C1C(=O)N(C)C(=O)N(C)C1=O`, for which the T/C is 94 % of control (dose: 50.0 mg/kg/injection, schedule: Q01DX009 (ip), vehicle: other); 97 % of control (dose: 100.0 mg/kg/injection, schedule: Q01DX009 (ip), vehicle: other); 102 % of control (dose: 200.0 mg/kg/injection, schedule: Q01DX009 (ip), vehicle: other).
Turning to `CC(C)Cn1c(Cl)c(/C=N\Nc2ccccc2[N+](=O)[O-])c2ccccc21`, the T/C (dose: 100.0 mg/kg/injection, schedule: Q04DX002 (ip), vehicle: Klucel (hydroxypropylcellulose) (HPC)) is 92 % of control and the T/C (dose: 200.0 mg/kg/injection, schedule: Q04DX002 (ip), vehicle: Klucel (hydroxypropylcellulose) (HPC)) is 99 % of control.
As to `CCOC(=O)Nc1cncc(NC(=O)OCC)n1`, the T/C reads like this: (dose: 6.25 mg/kg/injection, schedule: Q04DX003 (ip), vehicle: water) 106 % of control; (dose: 12.5 mg/kg/injection, schedule: Q04DX003 (ip), vehicle: water) 100 % of control; (dose: 25.0 mg/kg/injection, schedule: Q01DX009 (ip), vehicle: water) 100 % of control; (dose: 25.0 mg/kg/injection, schedule: Q04DX003 (ip), vehicle: water) 105 % of control; (dose: 50.0 mg/kg/injection, schedule: Q01DX009 (ip), vehicle: water) 101 % of control; (dose: 50.0 mg/kg/injection, schedule: Q04DX003 (ip), vehicle: water) 101 % of control. The T/C (dose: 100.0 mg/kg/injection, schedule: Q01DX009 (ip), vehicle: water) was 93 % of control; the T/C (dose: 100.0 mg/kg/injection, schedule: Q04DX003 (ip), vehicle: water) is 100 % of control; the T/C (dose: 200.0 mg/kg/injection, schedule: Q01DX009 (ip), vehicle: water) was 95 % of control; the T/C (dose: 400.0 mg/kg/injection, schedule: Q01DX009 (ip), vehicle: water) is 87 % of control.
Take `CC(=O)OCC(COC(C)=O)=C1N=C(c2ccccc2)OC1=O`: the T/C runs as follows: under setting [8], 107 % of control; under setting [5], 96 % of control; under setting [9], 118 % of control; under setting [6], 115 % of control; under setting [10], 118 % of control.
In the case of `O=C(O)C1C(C(=O)O)N2C(c3ccccc3)C(C(=O)O)C(C(=O)O)N2C1c1ccccc1` (configuration not stated), the T/C by setting is: under setting [8], 90 % of control; under setting [5], 90 % of control; under setting [6], 90 % of control.
On to `CCCCCCCCCCCCCCSC1CC(=O)OC1=O` (configuration not stated), for which the T/C is, setting by setting: under setting [8], 98 % of control; under setting [5], 91 % of control; under setting [6], 96 % of control.
As to `C[N+](C)(C)CCC[n+]1ccc(CCn2ccc3ccccc32)cc1`, the T/C is, setting by setting: (dose: 25.0 mg/kg/injection, schedule: Q01DX001 (ip), vehicle: saline) 100 % of control; (dose: 50.0 mg/kg/injection, schedule: Q01DX001 (ip), vehicle: saline) 105 % of control; (dose: 100.0 mg/kg/injection, schedule: Q01DX001 (ip), vehicle: saline) 105 % of control.
For `COc1ccc(NC2=CC(=O)C(=O)C=C2Nc2ccc(OC)cc2)cc1`, the T/C reads like this: (dose: 15.0 mg/kg/injection, schedule: Q01DX009 (ip), vehicle: saline with Tween-80) 93 % of control; (dose: 30.0 mg/kg/injection, schedule: Q01DX009 (ip), vehicle: saline with Tween-80) 93 % of control; (dose: 60.0 mg/kg/injection, schedule: Q01DX009 (ip), vehicle: saline with Tween-80) 91 % of control.
On to `C/C=C(\CC)C(=O)NC(N)=O`, for which the T/C under setting [3] was 95 % of control; the T/C under setting [4] is 100 % of control; the T/C (dose: 400.0 mg/kg/injection, schedule: Q01DX009 (ip), vehicle: Klucel (hydroxypropylcellulose) (HPC)) is 122 % of control.
As to `O=C(Nc1ccc2ccccc2c1)c1ccc(Cl)cc1Cl`, the T/C runs as follows: (dose: 75.0 mg/kg/injection, schedule: Q01DX001 (ip), vehicle: saline with Tween-80) 95 % of control; (dose: 150.0 mg/kg/injection, schedule: Q01DX001 (ip), vehicle: saline with Tween-80) 86 % of control; (dose: 300.0 mg/kg/injection, schedule: Q01DX001 (ip), vehicle: saline with Tween-80) 90 % of control.
